Results from ChEMBL document CHEMBL5329153, “Is structural hybridization invoking new dimensions for antimalarial drug discovery research?” (RSC Med Chem, 2023).
pEC50, pIC50: −log10 of the molar value. In brackets after ≈: the same amount, converted by molar mass.

What follows are compounds tested on Plasmodium falciparum (assay: Antimalarial activity against Chloroquine sensitive Plasmodium falciparum assessed as parasitic growth inhibition). Conditions: not given.
Type: functional, organism-based

Row | Structure (SMILES) | IC50 [µg/mL]
1 | CC1=C(C(=O)Nc2ccc(Br)cn2)C(c2cn(-c3ccccc3)nc2-c2ccc(Cl)cc2)NC(=O)N1 (stereo not drawn) | 0.03 (≈ 0.0532 µM)
2 | CC1=C(C(=O)Nc2ccccn2)C(c2cn(-c3ccccc3)nc2-c2ccc(F)cc2)NC(=O)N1 (stereo not drawn) | 0.03 (≈ 0.064 µM)
3 | CC1=C(C(=O)Nc2ccc(Br)cn2)C(c2cn(-c3ccccc3)nc2-c2ccc([N+](=O)[O-])cc2)NC(=O)N1 (stereo not drawn) | 0.06 (≈ 0.104 µM)
4 | CC1=C(C(=O)Nc2ccc(Br)cn2)C(c2cn(-c3ccccc3)nc2-c2ccc(F)cc2)NC(=O)N1 (stereo not drawn) | 0.07 (≈ 0.128 µM)
5 | CC1=C(C(=O)Nc2ccc(Br)cn2)C(c2cn(-c3ccccc3)nc2-c2ccc(C)cc2)NC(=O)N1 (stereo not drawn) | 0.08 (≈ 0.147 µM)
6 | CCc1nc(N)nc(N)c1-c1ccc(Cl)cc1 [PYRIMETHAMINE] | 0.25 (≈ 1.01 µM)

These compounds were tested on Plasmodium falciparum (assay: Antimalarial activity against Chloroquine resistant Plasmodium falciparum assessed as parasitic growth inhibition by microscopic anlaysis). Conditions: not given.
Type: functional, organism-based

Row | Structure (SMILES) | IC50 [µg/mL]
7 | O=C(NNC(=S)Nc1ccccc1)c1cc(-c2c(F)cccc2F)nc2ccc(C(F)(F)F)cc12 | 0.19
8 | O=C(NNC(=S)Nc1c(F)cccc1F)c1cc(-c2ccccc2Br)nc2c(Cl)cc(C(F)(F)F)cc12 | 0.36
9 | O=C(NNC(=S)Nc1cc(Cl)cc(Cl)c1)c1cc(-c2ccc(F)cc2F)nc2cc(Cl)c(F)cc12 | 0.17
10 | CCCCNC(=S)NNC(=O)c1cc(-c2ccc(F)cc2)nc2c(Cl)cc(C(F)(F)F)cc12 | 0.28
11 | C=C[C@H]1CN2CC[C@H]1C[C@H]2[C@H](O)c1ccnc2ccc(OC)cc12 [QUININE] | 0.268

These compounds were tested on Plasmodium falciparum (assay: Antimalarial activity against Chloroquine resistant Plasmodium falciparum W2 assessed as parasitic growth inhibition). Conditions: not given.
Type: functional, organism-based

Row | Structure (SMILES) | pIC50
12 | Cc1cc(NCCCCCCNc2ccnc3cc(Cl)ccc23)nc(Nc2ccc(C(=O)N3CCSCC3)cc2)n1 | 7.48
13 | Cc1cc(NCCCCCCNc2ccnc3cc(Cl)ccc23)nc(Nc2ccc(C(=O)N3CCOCC3)cc2)n1 | 7.48

Each compound was assayed on Plasmodium falciparum (assay: Antimalarial activity against Chloroquine resistant Plasmodium falciparum W2 assessed as parasitic growth inhibition measured after 48 hrs by fluorescence based assay). Conditions: W2, 48 h.
Type: functional, organism-based

Row | Structure (SMILES) | pIC50
14 | O=C1c2ccc(N3CCCCC3)cc2C(=O)N1CCCCNc1ccnc2cc(Cl)ccc12 | 7.11
15 | O=C1c2ccc(N3CCN(CCO)CC3)cc2C(=O)N1CCCCNc1ccnc2cc(Cl)ccc12 | 7.85
16 | O=C1c2ccc(N3CCN(CCO)CC3)cc2C(=O)N1CCCCCCNc1ccnc2cc(Cl)ccc12 | 7.82
17 | O=C1c2cccc(N3CCOCC3)c2C(=O)N1CCCCCCNc1ccnc2cc(Cl)ccc12 | 7.60
18 | O=C1c2ccc(N3CCOCC3)cc2C(=O)N1CCCCCCNc1ccnc2cc(Cl)ccc12 | 7.72
19 | O=C1c2ccc(N3CCN(CCO)CC3)cc2C(=O)N1CCNc1ccnc2cc(Cl)ccc12 | 7.36
20 | O=C1c2ccc(N3CCOCC3)cc2C(=O)N1CCCCNc1ccnc2cc(Cl)ccc12 | 7.31
21 | O=C1c2cccc(N3CCCCC3)c2C(=O)N1CCCCCCNc1ccnc2cc(Cl)ccc12 | 7.12
22 | O=C1c2cccc(N3CCOCC3)c2C(=O)N1CCCCNc1ccnc2cc(Cl)ccc12 | 7.15
23 | O=C1c2cccc(N3CCCCC3)c2C(=O)N1CCCCNc1ccnc2cc(Cl)ccc12 | 7.29

Each compound was assayed on Plasmodium falciparum (assay: Antimalarial activity against Chloroquine sensitive Plasmodium falciparum D6 assessed as parasitic growth inhibition). Conditions: not given.
Type: functional, organism-based

Row | Structure (SMILES) | pIC50
24 | Cc1cc(NCCCCCCNc2ccnc3cc(Cl)ccc23)nc(Nc2ccc(C(=O)N3CCSCC3)cc2)n1 | 7.49
25 | Cc1cc(NCCCCCCNc2ccnc3cc(Cl)ccc23)nc(Nc2ccc(C(=O)N3CCOCC3)cc2)n1 | 7.49

These compounds were tested on Plasmodium falciparum (assay: Antimalarial activity against Plasmodium falciparum 3D7 assessed as parasitic growth inhibition). Conditions: not given.
Type: functional, organism-based

Row | Structure (SMILES) | pEC50
26 | C[C@H]1[C@H](OC(=O)CCC(=O)OCCc2cn(-c3ccnc4cc(Cl)ccc34)nn2)O[C@@H]2O[C@]3(C)CC[C@H]4[C@H](C)CC[C@@H]1[C@@]24OO3 | 8.10

What follows are compounds tested on Plasmodium falciparum (assay: Antimalarial activity against Plasmodium falciparum K1 assessed as parasitic growth inhibition). Conditions: not given.
Type: functional, organism-based

Row | Structure (SMILES) | pEC50
27 | C[C@H]1[C@H](OC(=O)CCC(=O)OCCc2cn(-c3ccnc4cc(Cl)ccc34)nn2)O[C@@H]2O[C@]3(C)CC[C@H]4[C@H](C)CC[C@@H]1[C@@]24OO3 | 8.59

Each compound was assayed on Plasmodium falciparum (assay: Antimalarial activity against Plasmodium falciparum Dd2 assessed as parasitic growth inhibition). Conditions: not given.
Type: functional, organism-based

Row | Structure (SMILES) | pEC50
28 | C[C@H]1[C@H](OC(=O)CCC(=O)OCCc2cn(-c3ccnc4cc(Cl)ccc34)nn2)O[C@@H]2O[C@]3(C)CC[C@H]4[C@H](C)CC[C@@H]1[C@@]24OO3 | 8.31
